Here are results for 22 molecules from patent US8865725B2, “Substituted imidazopyrimidin-5(6H)-ones as allosteric modulators of MGLUR5 receptors” (Vanderbilt University, priority 2011, dated 2014).

The target in one data set is human mGluR5a receptor (Homo sapiens, UniProt P41594). Description: Cell-based functional assay (Ca2+ mobilization, FDSS) for positive allosteric modulation of mGluR5. The conditions noted are these: for EC50: potentiation in presence of EC20 glutamate; for Emax: maximum % effect in concentration-response curve, as percent of response to maximally effective glutamate concentration. As for the experimental part:
The mGluR5 activity was determined using the metabotropic glutamate receptor activity assays in human embryonic kidney cells as described herein, wherein the human embryonic kidney cells were transfected with human mGluR5. The compounds in Table I were synthesized with methods identical or analogous to those shown herein. The Synthetic Route Reference indicated in Table I refers to the Reaction Scheme number described above. The requisite starting materials were commercially available, described in the literature, or readily synthesized by one skilled in the art of organic synthesis.
Human mGluR5a cDNA in pCMV6-XL6 mammalian expression plasmid was purchased from OriGene Technologies, Inc. (catalogue number SC326357) and subcloned into pcDNA3.1(−). […] Monoclones were named for the species (“H” for human) plus the location on the plate (e.g. “10H”).
HEK cells transfected with the human mGluR5a receptor (H10H or H12H cell line) were plated at 15,000 cells/well in clear-bottomed poly-D-lysine-coated assay plates (BD Falcon) in glutamate-glutamine-free growth medium and incubated overnight at 37° C. and 5% CO2. Cell-lines used were either the H10H or H12H cell-lines expressing the human mGluR5 receptor. The following day, the growth medium was removed and the cells were washed with assay buffer containing 1× Hank's balanced salt solution (Invitrogen, Carlsbad, Calif.), 20 mM HEPES, 2.5 mM probenecid, pH 7.4 and left with 20 μL of this reagent. Following this step, the cells were loaded with calcium indicator dye, fluo-4 AM, to a final concentration of 2 μM and incubated for 40-45 min at 37° C. The dye solution was removed and replaced with assay buffer. Cell plates were held for 10-15 min at room temperature and were then loaded into the Functional Drug Screening System 6000 (FDSS 6000, Hamamatsu, Japan).
After establishment of a fluorescence baseline for about 3 seconds, the compounds of the present invention were added to the cells, and the response in cells was measured. 2.3 minutes later an EC20 concentration of the mGluR5 receptor agonist glutamate was added to the cells, and the response of the cells was measured for about 1.7 minutes. All test compounds were dissolved and diluted to a concentration of 10 mM in 100% DMSO and then serially diluted into assay buffer for a 2× stock solution in 0.6% DMSO; stock compounds were then added to the assay for a final DMSO concentration of 0.3% after the first addition to the assay well. Calcium fluorescence measures were recorded as fold over basal fluorescence; raw data was then normalized to the maximal response to glutamate.
The concentration-response curves of compounds of the present invention, obtained in the presence of EC20 of mGluR5 receptor agonist glutamate to determine positive allosteric modulation, were generated using Microsoft Excel with IDBS XLfit add-ins. The raw data file containing all time points was used as the data source in the analysis template. This was saved by the FDSS as a tab-delimitted text file. Data were normalized using a static ratio function (F/F0) for each measurement of the total 350 values per well divided by each well's initial value. Data was then reduced as to peak amplitudes (Max—Initial Min) using a time range that starts approximately 1 second after the glutamate EC20 addition and continues for approximately 40 seconds. This is sufficient time to capture the peak amplitude of the cellular Calcium response. Individual amplitudes were expressed as % EMax by multiplying each amplitude by 100 and then dividing the product by the mean of the amplitudes derived from the glutamate ECMax-treated wells. pEC50 values for test compounds were generated by fitting the normalized values versus the log of the test compound concentration (in mol/L) using a 4 parameter logistic equation where none of the parameters were fixed.
(A change in cytosolic calcium serves as a functional read-out for many receptors and channels.)

Where [1] appears, read: EC50 (nM), HEK cells transfected with human mGluR5a (H10H or H12H).
Where [2] appears, read: HEK cells transfected with human mGluR5a (H10H or H12H), concentration in mol/L, read-out: pEC50 (converted).
The mark [3] stands for this setting: HEK cells transfected with human mGluR5a (H10H or H12H), read-out: EC50.

Like-named read-outs stand apart in the source and are kept apart here.

human mGluR5a receptor, sequence (P41594 21-1180 isoform P41594-2 limits assumed): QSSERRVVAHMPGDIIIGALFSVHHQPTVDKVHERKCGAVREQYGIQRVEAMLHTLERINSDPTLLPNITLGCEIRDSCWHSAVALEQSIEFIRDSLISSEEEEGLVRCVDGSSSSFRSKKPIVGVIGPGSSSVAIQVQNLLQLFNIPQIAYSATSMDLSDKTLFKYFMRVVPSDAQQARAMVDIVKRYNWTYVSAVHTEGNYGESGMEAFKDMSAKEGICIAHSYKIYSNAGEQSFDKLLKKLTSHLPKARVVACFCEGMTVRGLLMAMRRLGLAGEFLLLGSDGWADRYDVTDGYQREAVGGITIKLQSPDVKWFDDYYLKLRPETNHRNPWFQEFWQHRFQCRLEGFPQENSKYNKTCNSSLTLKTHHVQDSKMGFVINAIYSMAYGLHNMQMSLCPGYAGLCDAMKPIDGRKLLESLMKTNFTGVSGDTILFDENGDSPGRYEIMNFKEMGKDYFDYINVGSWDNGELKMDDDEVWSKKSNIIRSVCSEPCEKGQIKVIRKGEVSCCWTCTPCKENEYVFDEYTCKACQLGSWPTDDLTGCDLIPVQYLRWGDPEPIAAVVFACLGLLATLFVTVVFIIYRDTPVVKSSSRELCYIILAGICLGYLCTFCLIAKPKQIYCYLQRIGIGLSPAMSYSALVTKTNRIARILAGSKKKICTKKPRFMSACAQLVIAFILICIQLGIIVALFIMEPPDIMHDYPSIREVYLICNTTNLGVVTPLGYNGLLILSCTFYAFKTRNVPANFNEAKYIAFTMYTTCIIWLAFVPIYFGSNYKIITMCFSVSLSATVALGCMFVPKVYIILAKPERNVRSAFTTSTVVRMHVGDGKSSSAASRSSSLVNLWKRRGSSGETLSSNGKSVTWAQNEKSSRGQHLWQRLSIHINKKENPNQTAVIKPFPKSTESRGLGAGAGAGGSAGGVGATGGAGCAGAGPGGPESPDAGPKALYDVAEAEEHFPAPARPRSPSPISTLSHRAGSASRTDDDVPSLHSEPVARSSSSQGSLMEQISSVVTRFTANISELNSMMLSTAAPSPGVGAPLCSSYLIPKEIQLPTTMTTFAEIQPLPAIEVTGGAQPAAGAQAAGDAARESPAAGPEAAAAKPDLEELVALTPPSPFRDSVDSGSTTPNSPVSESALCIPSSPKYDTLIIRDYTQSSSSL

In the case of `O=c1n(CC2CC2)ccc2nc(COc3ccccc3)cn12` [compound 17], the melting point amounted to 102.1 °C. Also, at human mGluR5a receptor (setting [1]), the EC50 was 1100 nM. The EC50 at human mGluR5a receptor (setting [2]) is 1050 nM. Moreover, on human mGluR5a receptor, the Emax was 51%.
In the case of `O=c1n(-c2ccc(F)cc2)ccc2nc(COc3ccccn3)cn12` [compound 18], the melting point turned out to be 282.3 °C. In addition, at human mGluR5a receptor (setting [2]), the EC50 is 2140 nM. The EC50 on human mGluR5a receptor (setting [3]) came out at 2510 nM. On human mGluR5a receptor, this molecule yielded an Emax of 66%.
The molecule `O=c1n(-c2ccc(F)cc2)ccc2nc(COc3cccnc3)cn12` [compound 19] registered a melting point greater than 300 °C. For the same molecule, the EC50 at human mGluR5a receptor (setting [3]) was greater than 30200 nM. At human mGluR5a receptor, the Emax was determined as 59%.
In the case of `O=c1n(-c2ccc(F)cc2)cc(F)c2nc(COc3ccccc3)cn12` [compound 20], the melting point stood at 110.7 °C. Also, the EC50 at human mGluR5a receptor (setting [2]) is 85.1 nM. For the same molecule, the EC50 on human mGluR5a receptor (setting [3]) turned out to be 78 nM. Also, at human mGluR5a receptor, the Emax amounted to 73%.
`O=c1n(-c2cccc(C(F)(F)F)c2)ccc2nc(COc3ccc(Cl)cc3)cn12` [compound 21] displayed a melting point of 141.8 °C. For the same molecule, the EC50 on human mGluR5a receptor (setting [3]) was greater than 10000 nM.
In the same order, the values of `N#Cc1ccc(OCc2cn3c(=O)n(-c4cccc(C(F)(F)F)c4)ccc3n2)cc1` [compound 22] are 189.4 °C and greater than 10000 nM.
In the case of `Cc1cc(-n2ccc3nc(COc4ccccc4)cn3c2=O)ncc1F` [compound 23], the melting point was found to be 203.1 °C. The EC50 on human mGluR5a receptor (setting [2]) was 331 nM. Further, on human mGluR5a receptor (setting [3]), the EC50 was determined as 327 nM. On human mGluR5a receptor, this molecule gave an Emax of 60%.
The like results for `CN(C)c1cccc(-n2ccc3nc(COc4ccccc4)cn3c2=O)n1` [compound 24] were, in that order, 136 °C, 209 nM, 201 nM and 64%.
`COc1nccc(-n2ccc3nc(COc4ccccc4)cn3c2=O)n1` [compound 25, 6-(2-methoxy-pyrimidin-4-yl)-2-phenoxymethyl-6H-imidazo[1,2-c]pyrimidin-5-one] gave a melting point of 171.2 °C. The EC50 on human mGluR5a receptor (setting [3]) is 570 nM. The Emax at human mGluR5a receptor was 46%.
Take `Cc1cn(-c2ccc(F)cc2)c(=O)n2cc(COc3ccccc3)nc12` [compound 27, 6-(4-fluoro-phenyl)-8-methyl-2-phenoxymethyl-6H-imidazo[1,2-c]pyrimidin-5-one]: the melting point amounted to 146.9 °C. The EC50 at human mGluR5a receptor (setting [3]) was greater than 30200 nM. Moreover, on human mGluR5a receptor, the Emax worked out at 16%.
Molecule `Cc1cc2nc(COc3ccccc3)cn2c(=O)n1-c1ccc(F)cc1` [compound 28] showed a melting point of 143.6 °C. The EC50 at human mGluR5a receptor (setting [2]) is 1480 nM. Further, at human mGluR5a receptor (setting [3]), the EC50 was 1860 nM. For the same molecule, the Emax on human mGluR5a receptor was determined as 49%.
Take `O=c1n(-c2ccc(F)cc2)ccc2nc(COc3ccccc3)c(Cl)n12` [compound 29, 3-chloro-6-(4-fluoro-phenyl)-2-phenoxymethyl-6H-imidazo[1,2-c]pyrimidin-5-one]: the melting point stood at 170.3 °C. Moreover, on human mGluR5a receptor (setting [3]), the EC50 was greater than 30200 nM. This molecule gave an Emax at human mGluR5a receptor of 17%.
Take `O=C1N(c2ccc(F)cc2)CCc2nc(COc3ccccc3)cn21` [compound 31]: the melting point was 195.2 °C. Besides, the EC50 on human mGluR5a receptor (setting [2]) was 102 nM. Also, the EC50 at human mGluR5a receptor (setting [3]) is 97 nM. In addition, the Emax on human mGluR5a receptor worked out at 71%.
`O=C1N(c2cccc(F)c2)CCc2nc(COc3ccccc3)cn21` [compound 32]: the melting point is greater than 300 °C. In addition, the EC50 at human mGluR5a receptor (setting [1]) is 226 nM. Moreover, the EC50 at human mGluR5a receptor (setting [2]) was 245 nM. Moreover, on human mGluR5a receptor, the Emax worked out at 70%.
`O=C1N(c2ccc(F)c(F)c2)CCc2nc(COc3ccccc3)cn21` [compound 33] had a melting point of 165.4 °C. For the same molecule, the EC50 on human mGluR5a receptor (setting [2]) was 102 nM. The EC50 at human mGluR5a receptor (setting [3]) is 97 nM. Besides, the Emax at human mGluR5a receptor came to 75%.
Molecule `O=C1N(c2ccc(F)cc2)CCc2nc(COc3cccc(F)c3)cn21` [compound 34] registered a melting point of 141.1 °C. Further, at human mGluR5a receptor (setting [3]), the EC50 came to 65 nM. On human mGluR5a receptor, this molecule registered an Emax of 73%. On human mGluR5a receptor (pEC50, HEK cells transfected with human mGluR5a (H10H or H12H), concentration in mol/L), the EC50 was 67.6 nM.
With `O=C1N(c2ccc(F)cc2)CCc2nc(COc3ccc(F)cc3)cn21` [compound 35, 2-(4-fluoro-phenoxymethyl)-6-(4-fluoro-phenyl)-7,8-dihydro-6H-imidazo[1,2-c]pyrimidin-5-one], the melting point stood at 182.3 °C. For the same molecule, at human mGluR5a receptor (setting [2]), the EC50 was 170 nM. Further, on human mGluR5a receptor (setting [3]), the EC50 is 188 nM. The same molecule registered an Emax on human mGluR5a receptor of 68%.
The like results for `Cc1cccc(OCc2cn3c(n2)CCN(c2ccc(F)cc2)C3=O)c1` [compound 37, 6-(4-fluoro-phenyl)-2-m-tolyloxymethyl-7,8-dihydro-6H-imidazo[1,2-c]pyrimidin-5-one] were, in that order, 169.3 °C, 204 nM, 191 nM and 48%.
On to `O=C1N(c2ccc(F)cn2)CCc2nc(COc3ccccc3)cn21` [compound 39], for which the melting point was found to be 135 °C. On human mGluR5a receptor (setting [2]), the EC50 is 316 nM. The EC50 at human mGluR5a receptor (setting [3]) was 389 nM. The Emax on human mGluR5a receptor was 64%.
The like results for `Cc1cc(N2CCc3nc(COc4ccccc4)cn3C2=O)ncc1F` [compound 40] were, in that order, 196.5 °C, 269 nM, 351 nM and 61%.
In the case of `O=C1N(c2ccc(F)cc2)CCc2nc(COc3ccccc3)c(Cl)n21` [compound 42, 3-chloro-6-(4-fluoro-phenyl)-2-phenoxymethyl-7,8-dihydro-6H-imidazo[1,2-c]pyrimidin-5-one], the melting point is 200.1 °C. For the same molecule, at human mGluR5a receptor (setting [3]), the EC50 was greater than 30200 nM. At human mGluR5a receptor, this molecule came in with an Emax of 17%.
In the same order, the values of `Cc1c(COc2ccccc2)nc2n1C(=O)N(c1ccc(F)cc1)CC2` [compound 44, 6-(4-fluoro-phenyl)-3-methyl-2-phenoxymethyl-7,8-dihydro-6H-imidazo[1,2-c]pyrimidin-5-one] are 160.4 °C, greater than 30200 nM and 20%.

A word on the melting point: it is the temperature of the solid-liquid transition. For orientation: Emax means the size of the effect at its maximum, as opposed to the concentration needed.
